pIC50: −log10 of the molar value.
Columns and labels:
Mouse 11β-HSD 1 = Mouse 11β-HSD 1 (Mus musculus, UniProt P50172); assay: Evaluation of compound against mouse 11β-HSD1 (HTRF corticosterone assay); assay type: biochemical; conditions: mouse 11β-HSD1, 11-dehydrocorticosterone 2 μM substrate, 37° C. 2 hours
Procedure: Evaluation Method of 11β-HSD1 Inhibitor (Evaluation of Compound Against Mouse 11β-HSD 1)
(§1) After preincubating an inhibitor in a reaction solution consisting of 50 mM sodium phosphate buffer (pH 7.6), bovine serum albumin (1 mg/mL), NADPH (0.42 mg/mL), glucose-6-phosphate (1.26 mg/mL), glucose-6-phosphate dehydrogenase, and an enzyme at room temperature for 30 minutes, 11-dehydrocorticosterone (2 μM) which is a substrate was added (total amount 10 μL). After reacting at 37° C. for 2 hours, an XL-665-labeled cortisol solution (5 μL), and a Cryptate-labeled anti-cortisol antibody solution (5 μL) were added, a reaction was performed at room temperature for 2 hours, and fluorescence intensity (HTRF method) was measured. A corticosterone concentration was calculated from a standard curve prepared using a known concentration of corticosterone for each assay.
Taking a concentration of corticosterone generated in the absence of the inhibitor as a control value, 50% inhibitory concentration (IC50 value) of the inhibitor against 11β-HSD1 was calculated from an inhibition curve plotting inhibition rate against the control value at each concentration of the inhibitor.

Human 11β-HSD1 = Human 11β-HSD1 (Homo sapiens, UniProt P28845); assay: Evaluation of compound against human 11β-HSD1 (HTRF cortisol assay); assay type: biochemical; conditions: human 11β-HSD1, cortisone 5 μM substrate, 37° C. 2 hours
Procedure: Evaluation Method of 11β-HSD1 Inhibitor (Evaluation of Compound Against Human 11β-HSD1)
as §1, with “dehydrogenase” for “dehydrogenase,”, “cortisone (5” for “11-dehydrocorticosterone (2”, “cortisol” for “corticosterone”
Taking a concentration of cortisol generated in the absence of the inhibitor as a control value, 50% inhibitory concentration (IC50 value) of the inhibitor against 11β-HSD1 was calculated from an inhibition curve plotting inhibition rate against the control value at each concentration of an inhibitor.

Mouse 11β-HSD 1, sequence (P50172 whole entry): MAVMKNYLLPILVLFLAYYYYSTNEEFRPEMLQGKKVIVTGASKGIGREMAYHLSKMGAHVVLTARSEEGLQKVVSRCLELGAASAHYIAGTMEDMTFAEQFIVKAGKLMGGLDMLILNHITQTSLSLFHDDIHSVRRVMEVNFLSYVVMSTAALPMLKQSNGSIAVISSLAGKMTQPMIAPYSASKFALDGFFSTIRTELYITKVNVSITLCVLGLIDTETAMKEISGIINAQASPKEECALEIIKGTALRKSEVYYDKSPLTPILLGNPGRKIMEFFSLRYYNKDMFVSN
Human 11β-HSD1, sequence (P28845 whole entry): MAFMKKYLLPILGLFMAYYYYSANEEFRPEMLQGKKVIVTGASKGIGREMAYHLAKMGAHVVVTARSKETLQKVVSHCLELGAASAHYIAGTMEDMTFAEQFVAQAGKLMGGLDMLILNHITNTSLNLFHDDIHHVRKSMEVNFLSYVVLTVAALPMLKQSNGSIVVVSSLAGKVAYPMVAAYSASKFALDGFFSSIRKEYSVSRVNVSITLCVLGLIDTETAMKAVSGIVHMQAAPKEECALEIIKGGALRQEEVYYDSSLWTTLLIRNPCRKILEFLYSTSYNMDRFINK

Row | pIC50 (Mouse 11β-HSD 1) | pIC50 (Human 11β-HSD1) | Structure (SMILES)
1 | 6.09 | 7.49 | CCN(C1=NC(=O)C2CC(C)(C)CCC2S1)c1ccccc1C(C)(C)C (stereo not drawn) [Compound I-175]
2 | 5.79 | 7.96 | CCN(C1=NC(=O)C2CC(C)(C)CCC2S1)N1CCCCCC1 (stereo not drawn) [Compound I-195]
3 | 5.83 | 6.72 | CN(C1=NC(=O)C2CCCCCC2S1)C(C)(C)C (stereo not drawn) [Compound I-158]

Source: US20100234363A1, “HETEROCYCLIC DERIVATIVE HAVING INHIBITORY ACTIVITY ON TYPE-I 11 DATA-HYDROXYSTEROID DEHYDROGENASE” (INSTITUTE OF MEDICINAL MOLECULAR DESIGN, INC., priority 2007, published 2010)
